Source: patent US20090005363A1, “Organic Compounds” (priority 2005, published 2009)
Counter-ions that a name gives are not always drawn.

What follows are compounds tested against mGluR5 (Homo sapiens, UniProt P41594) (assay: inhibition of the glutamate induced elevation of intracellular Ca2+ concentration). Conditions: inhibition of glutamate induced elevation of intracellular Ca2+ concentration at 10 μM.
Sequence of mGluR5 (P41594 21-1180 isoform P41594-2 limits assumed): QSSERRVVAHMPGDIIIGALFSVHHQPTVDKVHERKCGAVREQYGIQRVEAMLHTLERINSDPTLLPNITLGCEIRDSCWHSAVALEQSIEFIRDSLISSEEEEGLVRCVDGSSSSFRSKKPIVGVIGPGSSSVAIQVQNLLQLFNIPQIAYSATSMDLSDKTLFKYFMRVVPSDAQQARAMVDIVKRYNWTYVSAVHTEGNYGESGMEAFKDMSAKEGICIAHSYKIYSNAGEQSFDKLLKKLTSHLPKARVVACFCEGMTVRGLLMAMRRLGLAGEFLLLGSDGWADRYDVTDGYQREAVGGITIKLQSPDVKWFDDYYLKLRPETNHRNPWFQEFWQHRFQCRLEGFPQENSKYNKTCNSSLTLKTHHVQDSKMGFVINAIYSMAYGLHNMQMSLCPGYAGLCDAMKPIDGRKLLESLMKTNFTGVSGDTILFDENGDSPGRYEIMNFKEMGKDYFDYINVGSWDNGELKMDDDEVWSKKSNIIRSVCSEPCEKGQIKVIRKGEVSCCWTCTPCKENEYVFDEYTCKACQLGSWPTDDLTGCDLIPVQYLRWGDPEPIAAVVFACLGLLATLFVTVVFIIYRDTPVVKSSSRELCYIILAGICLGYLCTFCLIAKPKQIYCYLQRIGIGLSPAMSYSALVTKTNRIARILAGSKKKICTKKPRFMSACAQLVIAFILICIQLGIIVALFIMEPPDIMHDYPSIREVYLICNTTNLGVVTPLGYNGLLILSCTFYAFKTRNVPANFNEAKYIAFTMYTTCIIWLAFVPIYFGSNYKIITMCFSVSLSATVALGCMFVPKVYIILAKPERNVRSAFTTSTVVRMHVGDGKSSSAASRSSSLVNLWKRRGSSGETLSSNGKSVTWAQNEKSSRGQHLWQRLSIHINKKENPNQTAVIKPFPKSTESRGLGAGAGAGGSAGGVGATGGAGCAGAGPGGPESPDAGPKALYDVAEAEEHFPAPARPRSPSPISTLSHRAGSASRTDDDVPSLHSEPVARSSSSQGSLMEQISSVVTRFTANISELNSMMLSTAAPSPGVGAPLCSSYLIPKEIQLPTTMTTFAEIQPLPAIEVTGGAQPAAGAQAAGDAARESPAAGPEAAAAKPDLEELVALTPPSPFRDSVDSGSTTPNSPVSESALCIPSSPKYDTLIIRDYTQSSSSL
Text: This can be determined in vitro for example at recombinant human metabotropic glutamate receptors, especially PLC-coupled subtypes thereof such as mGluR5, using different procedures like, for example, measurement of the inhibition of the agonist induced elevation of intracellular Ca^2+ concentration in accordance with L. P. Daggett et al., Neuropharm.

Q: For C[C@H]1CCCN(C(=O)c2ccc(Nc3ccc(Cl)cc3)nc2)C1 [Compound 1.12a, [6-(4-Chloro-phenylamino)-pyridin-3-yl]-(S-3-methyl-piperidin-1-yl)-methanone], which “mGluR5 Activity inh. at 10 μM [%]” value is on record?
A: 99%

Q: With Cc1ccc(Nc2ccc(C(=O)N3CCCC(C)C3)cn2)cc1 (stereo not drawn) [Compound 1.13] as the compound, how does the “mGluR5 Activity inh. at 10 μM [%]” value read?
A: 96%

Q: How did the “mGluR5 Activity inh. at 10 μM [%]” value turn out when COc1ccc(Nc2ccc(C(=O)N3C[C@@H](C)O[C@@H](C)C3)cn2)cc1.Cl [Compound 1.21, (cis-Z 6-Dimethyl-morpholin-4-yl)-[6-(4-methoxy-phenylamino)-pyridin-3-yl]-methanone hydrochloride] was run?
A: 57%

Same assay, conditions: read-out: mGluR5 Activity inh. at 10 μM [%]

Q: With CC1CCCN(C(=O)c2ccc(Nc3ccc(Cl)cc3)nc2)C1 (racemic) [Compound 1.12, rac-[6-(4-Chloro-phenylamino)-pyridin-3-yl]-(3-methyl-piperidin-1-yl)-methanone] as the compound, how does the inhibition at 10 µM read?
A: 93%

Q: With O=C(c1cnc(Nc2ccc(Cl)cc2)c(Cl)c1)N1CC2CCC1C2 (racemic) [Compound 2.4, rac-(2-Aza-bicyclo[2.2.1]hept-2-yl)-[5-chloro-6-(4-chloro-phenylamino)-pyridin-3-yl]-methanone] as the compound, how does the inhibition at 10 µM read?
A: 100%

Q: With COc1ccc(Nc2ncc(C(=O)N3CCCC(C)C3)cc2Cl)cn1 (racemic) [Compound 2.6, rac-[5-Chloro-6-(6-methoxy-pyridin-3-ylamino)-pyridin-3-yl]-(3-methyl-piperidin-1-yl)-methanone] as the compound, how does the inhibition at 10 µM read?
A: 98%

Q: Cc1ccc(Nc2ncc(C(=O)N3CC4CCC3C4)cc2Cl)cn1 (racemic) [Compound 2.13, rac-(2-Aza-bicyclo[2.2.1]hept-2-yl)-[5-chloro-6-(6-methyl-pyridin-3-ylamino)-pyridin-3-yl]-methanone] was tested. Which inhibition at 10 µM did it give?
A: 96%

Q: Which inhibition at 10 µM does the source give for Cc1ccc(Oc2ncc(C(=O)N3CCCC(C)C3)cc2Cl)cn1 (racemic) [Compound 3.1, rac-[5-Chloro-6-(6-methyl-pyridin-3-yloxy)-pyridin-3-yl]-(3-methyl-piperidin-1-yl)-methanone] here?
A: 94%

Q: For O=C(c1ccc(Nc2ccc(Cl)cc2)nc1)N1CCCC(CO)C1 (racemic) [Compound 4.6, rac-[6-(4-Chloro-phenylamino)-pyridin-3-yl]-(3-hydroxymethyl-piperidin-1-yl)-methanone], which inhibition at 10 µM is on record?
A: 86%

Q: Which inhibition at 10 µM does the source give for COC1CCCN(C(=O)c2ccc(Nc3ccc(Cl)cc3)nc2)C1 (racemic) [Compound 4.7, rac-[6-(4-Chloro-phenylamino)-pyridin-3-yl]-(3-methoxy-piperidin-1-yl)-methanone] here?
A: 87%

Q: O=C(c1ccc(Nc2ccc(Cl)cc2)nc1)N1CC2CCC1C2 (racemic) [Compound 4.12, rac-(2-Aza-bicyclo[2.2.1]hept-2-yl)-[6-(4-chloro-phenylamino)-pyridin-3-yl]-methanone] was tested. Which inhibition at 10 µM did it give?
A: 96%

Q: How did the inhibition at 10 µM turn out when Cc1ccc(Nc2ccc(C(=O)N3CCCC(C)C3)cn2)cn1 (racemic) [Compound 4.13, rac-(3-Methyl-piperidin-1-yl)-[6-(6-methyl-pyridin-3-ylamino)-pyridin-3-yl]-methanone] was run?
A: 97%

Q: CC1CCCN(C(=O)c2cnc(Nc3ccc(Cl)cc3)nc2)C1 (racemic) [Compound 5.5, rac-[2-(4-Chloro-phenylamino)-pyrimidin-5-yl]-(3-methyl-piperidin-1-yl)-methanone] was tested. Which inhibition at 10 µM did it give?
A: 96%

Q: Which inhibition at 10 µM does the source give for CC1CCCN(C(=O)c2ccc(Nc3ccc(Cl)cc3)nn2)C1 (racemic) [Compound 8.2, rac-[6-(4-Chloro-phenylamino)-pyridazin-3-yl]-(3-methyl-piperidin-1-yl)-methanone] here?
A: 100%

Q: With Cc1cccc(C#C[C@]2(O)CCC[C@@H]3[C@H]2CCN3C(=O)c2ccc(Nc3ccc(Cl)cc3)nc2)c1 (relative stereo) [Compound 4.14, [6-(4-Chloro-phenylamino)-pyridin-3-yl]-(rel-(3aR,4S,7aR)-4-hydroxy-4-m-tolylethynyl-octahydro-indol-1-yl)-methanone] as the compound, how does the inhibition at 10 µM read?
A: 86%

Q: For CCN(CC)C(=O)c1ccc(Nc2ccc(Cl)cc2)nc1 [Compound 1.1, 6-(4-Chloro-phenylamino)-N,N-diethyl-nicotinamide hydrochloride], which inhibition at 10 µM is on record?
A: 95%

Q: With CCN(CC)C(=O)c1ccc(Nc2ccc(C)cc2)nc1 [Compound 1.2, N,N-Diethyl-6-p-tolylamino-nicotinamide hydrochloride] as the compound, how does the inhibition at 10 µM read?
A: 93%

Q: CCN(CC)C(=O)c1ccc(Nc2ccc(OC)cc2)nc1 [Compound 1.3, N,N-Diethyl-6-(4-methoxy-phenylamino)-nicotinamide hydrochloride] was tested. Which inhibition at 10 µM did it give?
A: 75%

Q: COCCN(CCOC)C(=O)c1ccc(Nc2ccc(Cl)cc2)nc1 [Compound 1.4, 6-(4-Chloro-phenylamino)-N,N-bis-(2-methoxy-ethyl)-nicotinamide hydrochloride] was tested. Which inhibition at 10 µM did it give?
A: 37%

Q: O=C(c1ccc(Nc2ccc(Cl)c(F)c2)nc1)N1CCCCC1 [Compound 1.5, [6-(4-Chloro-3-fluoro-phenylamino)-pyridin-3-yl]-piperidin-1-yl-methanone] was tested. Which inhibition at 10 µM did it give?
A: 90%

Q: Which inhibition at 10 µM does the source give for O=C(c1ccc(Nc2ccc(Br)cc2)nc1)N1CCCCC1 [Compound 1.6, [6-(4-Bromo-phenylamino)-pyridin-3-yl]-piperidin-1-yl-methanone] here?
A: 96%

Q: N#Cc1ccc(Nc2ccc(C(=O)N3CCCCC3)cn2)cc1 [Compound 1.7, 4-[5-(Piperidine-1-carbonyl)-pyridin-2-ylamino]-benzonitrile] was tested. Which inhibition at 10 µM did it give?
A: 77%

Q: For O=C(c1ccc(Nc2ccc(OC(F)(F)F)cc2)nc1)N1CCCCC1 [Compound 1.8, Piperidin-1-yl-[6-(4-trifluoromethoxy-phenylamino)-pyridin-3-yl]-methanone], which inhibition at 10 µM is on record?
A: 54%

Q: Which inhibition at 10 µM does the source give for CC1CCCCN1C(=O)c1ccc(Nc2ccc(Cl)cc2)nc1 (stereo not drawn) [Compound 1.9, [6-(4-Chloro-phenylamino)-pyridin-3-yl]-(2-methyl-piperidin-1-yl)-methanone hydrochloride] here?
A: 97%

Q: For Cc1ccc(Nc2ccc(C(=O)N3CCCCC3C)cn2)cc1 (stereo not drawn) [Compound 1.10, (2-Methyl-piperidin-1-yl)-(6-p-tolylamino-pyridin-3-yl)-methanone], which inhibition at 10 µM is on record?
A: 94%

Q: How did the inhibition at 10 µM turn out when COc1ccc(Nc2ccc(C(=O)N3CCCCC3C)cn2)cc1 (stereo not drawn) [Compound 1.11, [6-(4-Methoxy-phenylamino)-pyridin-3-yl]-(2-methyl-piperidin-1-yl)-methanone hydrochloride] was run?
A: 71%

Q: How did the inhibition at 10 µM turn out when C[C@@H]1CCCN(C(=O)c2ccc(Nc3ccc(Cl)cc3)nc2)C1 [Compound 1.12b, [6-(4-Chloro-phenylamino)-pyridin-3-yl]-(R-3-methyl-piperidin-1-yl)-methanone] was run?
A: 100%

Q: With COc1ccc(Nc2ccc(C(=O)N3CCCC(C)C3)cn2)cc1 (stereo not drawn) [Compound 1.14, [6-(4-Methoxy-phenylamino)-pyridin-3-yl]-(3-methyl-piperidin-1-yl)-methanone hydrochloride] as the compound, how does the inhibition at 10 µM read?
A: 94%

Q: CC1CCCN(C(=O)c2ccc(Nc3ccccc3)nc2)C1 (stereo not drawn) [Compound 1.15, (3-Methyl-piperidin-1-yl)-(6-phenylamino-pyridin-3-yl)-methanone hydrochloride] was tested. Which inhibition at 10 µM did it give?
A: 88%

Q: Which inhibition at 10 µM does the source give for CC1CCCN(C(=O)c2ccc(Nc3cccc(Cl)c3)nc2)C1 (stereo not drawn) [Compound 1.16, [6-(3-Chloro-phenylamino)-pyridin-3-yl]-(3-methyl-piperidin-1-yl)-methanone hydrochloride] here?
A: 54%

Q: Which inhibition at 10 µM does the source give for O=C(c1ccc(Nc2ccc(Cl)cc2)nc1)N1CCOCC1 [Compound 1.17, [6-(4-Chloro-phenylamino)-pyridin-3-yl]-morpholin-4-yl-methanone hydrochloride] here?
A: 83%

Q: With COc1ccc(Nc2ccc(C(=O)N3CCOCC3)cn2)cc1 [Compound 1.18, [6-(4-Methoxy-phenylamino)-pyridin-3-yl]-morpholin-4-yl-methanone hydrochloride] as the compound, how does the inhibition at 10 µM read?
A: 32%

Q: For C[C@@H]1CN(C(=O)c2ccc(Nc3ccc(Cl)cc3)nc2)C[C@H](C)O1 [Compound 1.19, cis-[6-(4-Chloro-phenylamino)-pyridin-3-yl]-(2,6-dimethyl-morpholin-4-yl)-methanone hydrochloride], which inhibition at 10 µM is on record?
A: 94%

Q: For Cc1ccc(Nc2ccc(C(=O)N3C[C@@H](C)O[C@@H](C)C3)cn2)cc1 [Compound 1.20, (cis-2,6-Dimethyl-morpholin-4-yl)-(6-p-tolylamino-pyridin-3-yl)-methanone hydrochloride], which inhibition at 10 µM is on record?
A: 95%

Q: For O=C(c1ccc(Nc2ccc(Cl)cn2)nc1)N1CCCCC1 [Compound 2.1, [6-(5-Chloro-pyridin-2-ylamino)-pyridin-3-yl]-piperidin-1-yl-methanone], which inhibition at 10 µM is on record?
A: 60%

Q: How did the inhibition at 10 µM turn out when O=C(c1ccc(Nc2cccnc2)nc1)N1CCCCCC1 [Compound 2.2, Azepan-1-yl-[6-(pyridin-3-ylamino)-pyridin-3-yl]-methanone] was run?
A: 46%

Q: With O=C(c1ccc(Nc2ccc(F)c(F)c2)nc1)N1CCCCC1 [Compound 2.3, [6-(3,4-Difluoro-phenylamino)-pyridin-3-yl]-piperidin-1-yl-methanone] as the compound, how does the inhibition at 10 µM read?
A: 65%

Q: With O=C(c1cnc(Nc2ccc(Cl)cc2)c(Cl)c1)N1CCSCC1 [Compound 2.5, [5-Chloro-6-(4-chloro-phenylamino)-pyridin-3-yl]-thiomorpholin-4-yl-methanone] as the compound, how does the inhibition at 10 µM read?
A: 97%

Q: Which inhibition at 10 µM does the source give for COc1ccc(Nc2ncc(C(=O)N3CCCCCC3)cc2Cl)cn1 [Compound 2.7, Azepan-1-yl-[5-chloro-6-(6-methoxy-pyridin-3-ylamino)-pyridin-3-yl]-methanone] here?
A: 98%

Q: Which inhibition at 10 µM does the source give for COc1ccc(Nc2ncc(C(=O)N3CCCCC3)cc2Cl)cn1 [Compound 2.8, [5-Chloro-6-(6-methoxy-pyridin-3-ylamino)-pyridin-3-yl]-piperidin-1-yl-methanone] here?
A: 96%

Q: Which inhibition at 10 µM does the source give for CCOc1ccc(Nc2ncc(C(=O)N3CCCCC3)cc2Cl)cn1 [Compound 2.9, [5-Chloro-6-(6-ethoxy-pyridin-3-ylamino)-pyridin-3-yl]-piperidin-1-yl-methanone] here?
A: 100%

Q: How did the inhibition at 10 µM turn out when Cc1ccc(Nc2ncc(C(=O)N3CCSC3)cc2Cl)cn1 [Compound 2.14, [5-Chloro-6-(6-methyl-pyridin-3-ylamino)-pyridin-3-yl]-thiazolidin-3-yl-methanone] was run?
A: 97%
